Reference: ChEMBL document CHEMBL1641373, “Trishomocubane as a scaffold for the development of selective dopamine transporter (DAT) ligands” (Bioorg Med Chem Lett, 2011)

How the values were obtained:
[1] = target: T1, 5-hydroxytryptamine receptor 2A (Homo sapiens, UniProt P28223); assay: Inhibition of 5HT2A receptor at 10 uM
[2] = target: Sigma non-opioid intracellular receptor 1 (Rattus norvegicus, UniProt Q9R0C9); assay: Displacement of (+)-[3H]pentazocine from sigma 1 receptor in rat PC12 cells; assay type: cell-based, PC-12
Chain of Sigma non-opioid intracellular receptor 1 (Q9R0C9 whole entry): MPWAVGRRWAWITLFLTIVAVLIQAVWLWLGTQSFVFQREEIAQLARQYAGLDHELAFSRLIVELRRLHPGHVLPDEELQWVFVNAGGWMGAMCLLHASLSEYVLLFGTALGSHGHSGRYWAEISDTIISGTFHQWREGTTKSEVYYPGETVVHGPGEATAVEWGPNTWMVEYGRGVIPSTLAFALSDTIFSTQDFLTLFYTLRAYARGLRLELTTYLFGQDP

[3] = target: T2, 5-hydroxytryptamine receptor 2B (Homo sapiens, UniProt P41595); assay: Inhibition of 5HT2B receptor at 10 uM
T2 sequence (P41595 whole entry): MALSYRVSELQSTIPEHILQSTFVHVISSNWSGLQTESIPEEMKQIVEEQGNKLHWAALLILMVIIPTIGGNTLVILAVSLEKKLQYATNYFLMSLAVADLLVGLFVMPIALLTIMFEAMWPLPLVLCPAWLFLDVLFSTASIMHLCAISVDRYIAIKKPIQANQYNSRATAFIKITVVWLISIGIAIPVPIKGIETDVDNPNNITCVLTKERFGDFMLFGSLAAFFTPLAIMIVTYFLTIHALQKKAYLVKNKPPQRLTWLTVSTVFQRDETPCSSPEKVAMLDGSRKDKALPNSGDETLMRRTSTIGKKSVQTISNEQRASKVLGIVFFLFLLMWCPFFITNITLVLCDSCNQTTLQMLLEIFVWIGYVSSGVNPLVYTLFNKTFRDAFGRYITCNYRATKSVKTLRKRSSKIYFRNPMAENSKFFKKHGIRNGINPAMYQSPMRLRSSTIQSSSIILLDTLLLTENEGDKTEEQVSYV

[4] = target: T3, 5-hydroxytryptamine receptor 6 (Homo sapiens, UniProt P50406); assay: Inhibition of 5HT6 receptor at 10 uM
T3 sequence (P50406 whole entry): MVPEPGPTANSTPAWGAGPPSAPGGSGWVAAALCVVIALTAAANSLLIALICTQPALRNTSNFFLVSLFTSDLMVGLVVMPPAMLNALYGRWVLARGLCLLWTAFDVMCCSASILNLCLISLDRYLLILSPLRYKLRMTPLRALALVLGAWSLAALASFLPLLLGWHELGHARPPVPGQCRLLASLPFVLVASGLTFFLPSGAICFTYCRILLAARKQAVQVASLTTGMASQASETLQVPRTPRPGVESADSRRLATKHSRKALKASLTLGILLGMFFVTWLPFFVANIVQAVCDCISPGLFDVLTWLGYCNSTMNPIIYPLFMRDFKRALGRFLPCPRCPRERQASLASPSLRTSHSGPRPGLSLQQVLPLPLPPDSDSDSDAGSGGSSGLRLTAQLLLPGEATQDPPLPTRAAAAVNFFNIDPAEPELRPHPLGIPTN

[5] = target: T4, Alpha-1D adrenergic receptor (Homo sapiens) (UniProt P25100); assay: Inhibition of Alpha-1D adrenergic receptor at 10 uM
T4 sequence (whole entry): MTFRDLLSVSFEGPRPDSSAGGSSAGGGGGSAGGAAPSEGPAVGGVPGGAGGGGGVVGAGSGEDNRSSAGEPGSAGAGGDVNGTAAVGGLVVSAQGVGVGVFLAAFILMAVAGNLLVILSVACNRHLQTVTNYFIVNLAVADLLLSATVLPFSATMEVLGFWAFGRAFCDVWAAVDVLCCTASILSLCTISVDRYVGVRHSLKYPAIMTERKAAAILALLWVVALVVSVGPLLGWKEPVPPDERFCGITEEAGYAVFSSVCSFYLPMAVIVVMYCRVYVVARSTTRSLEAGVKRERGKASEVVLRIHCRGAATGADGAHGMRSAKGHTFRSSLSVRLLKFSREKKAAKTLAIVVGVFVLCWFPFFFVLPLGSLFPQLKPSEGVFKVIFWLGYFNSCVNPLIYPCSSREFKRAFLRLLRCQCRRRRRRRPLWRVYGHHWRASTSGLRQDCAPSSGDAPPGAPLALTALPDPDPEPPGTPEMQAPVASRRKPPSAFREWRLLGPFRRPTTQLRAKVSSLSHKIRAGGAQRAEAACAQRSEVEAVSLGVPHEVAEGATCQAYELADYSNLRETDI

[6] = target: 5-hydroxytryptamine receptor 1D (Homo sapiens) (UniProt P28221); assay: Inhibition of 5HT1D receptor at 10 uM
Chain of 5-hydroxytryptamine receptor 1D (Homo sapiens) (P28221 whole entry): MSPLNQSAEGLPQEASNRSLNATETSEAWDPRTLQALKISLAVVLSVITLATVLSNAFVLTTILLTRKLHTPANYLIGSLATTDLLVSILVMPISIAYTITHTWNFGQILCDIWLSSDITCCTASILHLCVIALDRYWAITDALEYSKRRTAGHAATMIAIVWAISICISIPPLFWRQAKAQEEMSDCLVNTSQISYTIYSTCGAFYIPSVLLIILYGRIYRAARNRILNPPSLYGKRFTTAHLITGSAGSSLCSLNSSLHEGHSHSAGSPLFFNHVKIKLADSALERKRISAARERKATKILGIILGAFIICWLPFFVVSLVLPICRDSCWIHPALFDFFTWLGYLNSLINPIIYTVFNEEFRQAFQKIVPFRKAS

Histamine H1 receptor [7] = target: T5, Histamine H1 receptor (Homo sapiens, UniProt P35367); assay: Inhibition of H1 receptor at 10 uM
[8] = target: 5-hydroxytryptamine receptor 1E (Homo sapiens) (UniProt P28566); assay: Inhibition of 5HT1E receptor at 10 uM
Chain of 5-hydroxytryptamine receptor 1E (Homo sapiens) (P28566 whole entry): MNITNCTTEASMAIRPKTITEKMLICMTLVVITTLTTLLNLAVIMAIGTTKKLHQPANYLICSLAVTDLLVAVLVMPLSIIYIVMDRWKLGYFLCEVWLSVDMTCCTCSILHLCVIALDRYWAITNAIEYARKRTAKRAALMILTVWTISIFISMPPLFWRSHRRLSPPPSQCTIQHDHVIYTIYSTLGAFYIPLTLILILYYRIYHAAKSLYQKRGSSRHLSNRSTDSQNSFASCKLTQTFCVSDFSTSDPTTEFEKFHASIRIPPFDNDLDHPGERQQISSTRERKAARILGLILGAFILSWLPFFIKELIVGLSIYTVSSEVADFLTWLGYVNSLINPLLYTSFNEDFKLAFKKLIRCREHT

[9] = target: T6, Muscarinic acetylcholine receptor M1 (Homo sapiens) (UniProt P11229); assay: Inhibition of muscarinic M1 receptor at 10 uM
T6 sequence (whole entry): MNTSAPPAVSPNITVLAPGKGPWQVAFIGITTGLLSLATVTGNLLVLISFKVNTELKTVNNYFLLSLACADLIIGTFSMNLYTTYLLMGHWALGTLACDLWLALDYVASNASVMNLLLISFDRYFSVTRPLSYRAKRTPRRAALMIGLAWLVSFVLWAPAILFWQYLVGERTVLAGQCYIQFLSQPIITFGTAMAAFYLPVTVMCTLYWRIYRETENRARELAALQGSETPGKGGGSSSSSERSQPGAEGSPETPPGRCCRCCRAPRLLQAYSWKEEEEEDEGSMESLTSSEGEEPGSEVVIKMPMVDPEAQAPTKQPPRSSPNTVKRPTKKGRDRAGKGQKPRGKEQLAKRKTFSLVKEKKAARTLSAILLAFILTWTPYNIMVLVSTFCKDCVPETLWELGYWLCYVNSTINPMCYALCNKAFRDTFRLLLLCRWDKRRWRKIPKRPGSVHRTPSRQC

[10] = target: Sodium-dependent noradrenaline transporter (Homo sapiens, UniProt P23975); assay: Displacement of [3H]nisoxetine from human NET expressed in HEK cells; assay type: cell-based, HEK293; conditions: for inhibition: HEK293, concentration not given here
Chain of Sodium-dependent noradrenaline transporter (P23975 whole entry): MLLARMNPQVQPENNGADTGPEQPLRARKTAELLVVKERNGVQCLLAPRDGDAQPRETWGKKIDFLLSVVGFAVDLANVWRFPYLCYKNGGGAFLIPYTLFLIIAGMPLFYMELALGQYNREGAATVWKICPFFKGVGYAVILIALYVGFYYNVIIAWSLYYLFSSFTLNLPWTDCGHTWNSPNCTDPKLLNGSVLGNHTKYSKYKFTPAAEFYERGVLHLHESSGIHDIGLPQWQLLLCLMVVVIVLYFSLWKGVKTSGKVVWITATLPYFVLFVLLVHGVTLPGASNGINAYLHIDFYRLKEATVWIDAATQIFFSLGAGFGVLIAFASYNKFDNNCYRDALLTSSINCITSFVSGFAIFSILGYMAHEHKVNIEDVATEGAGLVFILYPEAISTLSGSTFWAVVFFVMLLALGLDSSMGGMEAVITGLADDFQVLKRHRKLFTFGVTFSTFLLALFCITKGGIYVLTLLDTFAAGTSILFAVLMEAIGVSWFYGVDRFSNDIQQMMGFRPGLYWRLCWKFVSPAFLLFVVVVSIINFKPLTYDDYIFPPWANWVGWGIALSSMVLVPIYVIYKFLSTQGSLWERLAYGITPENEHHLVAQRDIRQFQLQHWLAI

[11] = target: Alpha-2C adrenergic receptor (Homo sapiens) (UniProt P18825); assay: Inhibition of Alpha-2C adrenergic receptor at 10 uM
[12] = target: Beta-2 adrenergic receptor (Homo sapiens) (UniProt P07550); assay: Inhibition of beta2 adrenergic receptor at 10 uM
Chain of Beta-2 adrenergic receptor (Homo sapiens) (P07550 whole entry, looked up): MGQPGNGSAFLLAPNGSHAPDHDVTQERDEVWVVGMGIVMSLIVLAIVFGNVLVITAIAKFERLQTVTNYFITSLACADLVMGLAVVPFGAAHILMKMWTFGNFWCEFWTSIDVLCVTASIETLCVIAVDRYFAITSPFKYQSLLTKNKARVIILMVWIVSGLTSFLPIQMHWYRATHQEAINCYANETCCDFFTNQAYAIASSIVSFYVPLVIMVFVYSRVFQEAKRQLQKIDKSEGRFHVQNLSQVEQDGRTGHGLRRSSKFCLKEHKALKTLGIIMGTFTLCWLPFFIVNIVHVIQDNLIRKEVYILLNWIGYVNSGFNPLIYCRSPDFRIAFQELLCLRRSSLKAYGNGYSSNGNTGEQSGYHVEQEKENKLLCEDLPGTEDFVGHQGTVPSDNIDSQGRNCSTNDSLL

D(1B) dopamine receptor [13] = target: T7, D(1B) dopamine receptor (Homo sapiens, UniProt P21918); assay: Inhibition of dopamine D5 receptor at 10 uM
T7 sequence (P21918 whole entry): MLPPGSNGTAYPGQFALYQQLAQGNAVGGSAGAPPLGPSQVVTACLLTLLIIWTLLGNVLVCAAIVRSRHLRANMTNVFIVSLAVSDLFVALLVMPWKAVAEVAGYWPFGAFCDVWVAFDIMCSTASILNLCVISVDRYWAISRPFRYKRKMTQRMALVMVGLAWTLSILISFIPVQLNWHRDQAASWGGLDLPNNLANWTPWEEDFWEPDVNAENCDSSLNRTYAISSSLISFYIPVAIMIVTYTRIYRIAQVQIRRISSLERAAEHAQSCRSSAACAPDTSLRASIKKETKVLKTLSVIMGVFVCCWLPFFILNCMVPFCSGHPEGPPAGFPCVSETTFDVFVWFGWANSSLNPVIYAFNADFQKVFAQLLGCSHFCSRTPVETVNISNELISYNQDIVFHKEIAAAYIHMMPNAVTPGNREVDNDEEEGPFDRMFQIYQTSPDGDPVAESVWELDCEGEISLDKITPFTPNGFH

[14] = target: Beta-1 adrenergic receptor (Homo sapiens) (UniProt P08588); assay: Inhibition of beta1 adrenergic receptor at 10 uM
Chain of Beta-1 adrenergic receptor (Homo sapiens) (P08588 whole entry, looked up): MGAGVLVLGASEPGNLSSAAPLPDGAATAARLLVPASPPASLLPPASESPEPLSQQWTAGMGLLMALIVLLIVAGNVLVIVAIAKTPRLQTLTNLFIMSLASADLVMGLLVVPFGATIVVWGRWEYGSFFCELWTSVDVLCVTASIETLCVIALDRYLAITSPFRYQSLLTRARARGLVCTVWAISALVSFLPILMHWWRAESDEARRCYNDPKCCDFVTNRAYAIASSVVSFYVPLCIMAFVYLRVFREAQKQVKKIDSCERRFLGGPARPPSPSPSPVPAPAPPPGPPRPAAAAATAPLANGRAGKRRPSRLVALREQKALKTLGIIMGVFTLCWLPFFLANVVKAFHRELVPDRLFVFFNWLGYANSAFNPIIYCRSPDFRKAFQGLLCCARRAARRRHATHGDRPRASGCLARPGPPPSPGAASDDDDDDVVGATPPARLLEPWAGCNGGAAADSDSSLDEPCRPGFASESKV

[15] = target: Kappa-type opioid receptor (Homo sapiens) (UniProt P41145); assay: Inhibition of kappa opioid receptor at 10 uM
Chain of Kappa-type opioid receptor (Homo sapiens) (P41145 whole entry): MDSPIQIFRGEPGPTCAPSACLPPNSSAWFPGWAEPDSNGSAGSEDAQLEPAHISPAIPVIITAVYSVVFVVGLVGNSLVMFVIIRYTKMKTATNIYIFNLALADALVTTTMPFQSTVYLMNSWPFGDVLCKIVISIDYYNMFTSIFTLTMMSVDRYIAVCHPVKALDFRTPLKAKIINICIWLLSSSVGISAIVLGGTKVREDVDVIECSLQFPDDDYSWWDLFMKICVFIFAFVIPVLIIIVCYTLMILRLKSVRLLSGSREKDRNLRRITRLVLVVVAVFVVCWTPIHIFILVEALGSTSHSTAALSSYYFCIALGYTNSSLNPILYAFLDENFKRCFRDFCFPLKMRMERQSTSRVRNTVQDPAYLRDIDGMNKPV

D(3) dopamine receptor = D(3) dopamine receptor (Homo sapiens, UniProt P35462); assay: Inhibition of dopamine D3 receptor at 10 uM
[16] = Inhibition of GABAA receptor at 10 uM
Rattus norvegicus = species: Rattus norvegicus; assay: Inhibition of BZP receptor in rat brain; assay type: tissue-based; conditions: concentration not given here
Histamine H2 receptor = Histamine H2 receptor (Homo sapiens, UniProt P25021); assay: Inhibition of H2 receptor at 10 uM
[17] = target: Alpha-2B adrenergic receptor (Homo sapiens) (UniProt P18089); assay: Inhibition of alpha2B adrenergic receptor at 10 uM
D(1B) dopamine receptor [18] = target: T7, D(1B) dopamine receptor; assay: Inhibition of dopamine D5 receptor
[19] = target: Alpha-2C adrenergic receptor (Homo sapiens, UniProt P18825); assay: Inhibition of Alpha-2C adrenergic receptor
[20] = target: T1, 5-hydroxytryptamine receptor 2A; assay: Inhibition of 5HT2A receptor
[21] = target: T2, 5-hydroxytryptamine receptor 2B; assay: Inhibition of 5HT2B receptor
[22] = target: Muscarinic acetylcholine receptor M5 (Homo sapiens, UniProt P08912); assay: Inhibition of muscarinic M5 receptor
[23] = target: Muscarinic acetylcholine receptor M2 (Homo sapiens, UniProt P08172); assay: Inhibition of muscarinic M2 receptor
[24] = target: T3, 5-hydroxytryptamine receptor 6; assay: Inhibition of 5HT6 receptor
[25] = target: Alpha-2A adrenergic receptor (Homo sapiens, UniProt P08913); assay: Inhibition of alpha2A adrenergic receptor
[26] = target: Muscarinic acetylcholine receptor M3 (Homo sapiens, UniProt P20309); assay: Inhibition of muscarinic M3 receptor
Histamine H1 receptor [27] = target: T5, Histamine H1 receptor; assay: Inhibition of H1 receptor
[28] = target: Muscarinic acetylcholine receptor M4 (Homo sapiens, UniProt P08173); assay: Inhibition of muscarinic M4 receptor

T1 sequence (P28223 whole entry): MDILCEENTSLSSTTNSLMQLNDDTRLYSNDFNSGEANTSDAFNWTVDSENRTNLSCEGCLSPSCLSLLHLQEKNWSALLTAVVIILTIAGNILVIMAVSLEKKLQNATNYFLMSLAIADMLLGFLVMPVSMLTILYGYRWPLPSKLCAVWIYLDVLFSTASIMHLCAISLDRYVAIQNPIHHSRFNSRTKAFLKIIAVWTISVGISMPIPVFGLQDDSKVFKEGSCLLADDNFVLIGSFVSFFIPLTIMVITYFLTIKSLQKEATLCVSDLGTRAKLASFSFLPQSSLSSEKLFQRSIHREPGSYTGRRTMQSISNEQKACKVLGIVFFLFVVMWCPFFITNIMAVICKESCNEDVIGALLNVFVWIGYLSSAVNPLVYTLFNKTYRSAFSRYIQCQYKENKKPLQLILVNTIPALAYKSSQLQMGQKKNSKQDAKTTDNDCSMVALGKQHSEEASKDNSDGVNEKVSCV

Fc1cccc(CN[C@H]2C3C4CC5C6C4CC3C6C52)c1 (some centres undefined)
198 nM: Ki [2]
5880 nM: Ki [10]
< 50%: inhibition [1] | inhibition [3] | inhibition [4] | inhibition [5] | inhibition [6] | inhibition (Histamine H1 receptor [7]) | inhibition [8] | inhibition [9] | inhibition [11] | inhibition [12] | inhibition (D(1B) dopamine receptor [13]) | inhibition [14] | inhibition [15]

CN(Cc1cccc(F)c1)[C@H]1C2C3CC4C5C3CC2C5C41 (some centres undefined)
> 10000 nM: Ki (D(1B) dopamine receptor [18])
1570 nM: Ki [2]
< 50%: inhibition [1] | inhibition [3] | inhibition [4] | inhibition [5] | inhibition (D(3) dopamine receptor) | inhibition [16] | inhibition (Rattus norvegicus) | inhibition (Histamine H2 receptor) | inhibition [6] | inhibition [17] | inhibition [8] | inhibition [9] | inhibition [10] | inhibition [11] | inhibition [12] | inhibition [14] | inhibition [15]

CN(CCc1cccc(F)c1)[C@H]1C2C3CC4C5C3CC2C5C41 (some centres undefined)
2070 nM: Ki [19]
6090 nM: Ki [21]
< 50%: inhibition [4] | inhibition [5] | inhibition [16] | inhibition (Rattus norvegicus) | inhibition [6] | inhibition [17] | inhibition [8] | inhibition [9] | inhibition [10] | inhibition [12] | inhibition [14] | inhibition [15]
1160 nM: Ki [2]
> 10000 nM: Ki [20]

Fc1cccc(CCN[C@H]2C3C4CC5C6C4CC3C6C52)c1 (some centres undefined)
6020 nM: Ki [20]
705 nM: Ki [28]
6980 nM: Ki [21]
19 nM: Ki [2]
1390 nM: Ki [26]
7610 nM: Ki [25]
3620 nM: Ki [10]
> 10000 nM: Ki [24]
2380 nM: Ki (Histamine H1 receptor [27])
< 50%: inhibition [5] | inhibition [6] | inhibition [8] | inhibition [9] | inhibition [12] | inhibition (D(1B) dopamine receptor [13]) | inhibition [14] | inhibition [15]
2290 nM: Ki [23]
1830 nM: Ki [22]
